Results as given in ChEMBL document CHEMBL4052601, “Glycybridins A-K, Bioactive Phenolic Compounds from Glycyrrhiza glabra” (J Nat Prod, 2017).
Peptide text beside a SMILES is read from it. * marks the point of attachment. Cbz = O=C(OCc1ccccc1)*

What was measured:
[1] = tested on: RAW264.7; experiment: Antiinflammatory activity against mouse RAW264.7 cells assessed as inhibition of LPS-induced nitric oxide production at 10 uM after 24 hrs by Griess assay relative to control; type: functional; settings: RAW264.7, 24 h
[2] = tested on: Homo sapiens; experiment: Inhibition of LPS-induced NF-kappaB (unknown origin) transactivation expressed in human SW480 cells at 10 uM administered 1 hr after LPS stimulation measured after 6 hrs by luciferase reporter gene assay relative to control; type: cell-based
[3] = tested on: HepG2; experiment: Antiproliferative activity against human HepG2 cells at 10 uM after 24 hrs by MTS assay relative to control; type: functional; settings: HepG2, 24 h
[4] = tested on: A549; experiment: Antiproliferative activity against human A549 cells at 10 uM after 24 hrs by MTS assay relative to control; type: functional; settings: A549, 24 h
[5] = tested on: MCF7; experiment: Antiproliferative activity against human MCF7 cells at 10 uM after 24 hrs by MTS assay relative to control; type: functional; settings: MCF7, 24 h
[6] = tested on: SW480; experiment: Antiproliferative activity against human SW480 cells at 10 uM after 24 hrs by MTS assay relative to control; type: functional; settings: SW480, 24 h
[7] = target: T1, Tyrosinase (Homo sapiens) (UniProt P14679); settings: at 10 µM;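 also: tyrosinase of unspecified origin acting on L-tyrosine, compound preincubated with enzyme for 15 min before adding substrate, inhibition expressed versus control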
T1 sequence (whole entry): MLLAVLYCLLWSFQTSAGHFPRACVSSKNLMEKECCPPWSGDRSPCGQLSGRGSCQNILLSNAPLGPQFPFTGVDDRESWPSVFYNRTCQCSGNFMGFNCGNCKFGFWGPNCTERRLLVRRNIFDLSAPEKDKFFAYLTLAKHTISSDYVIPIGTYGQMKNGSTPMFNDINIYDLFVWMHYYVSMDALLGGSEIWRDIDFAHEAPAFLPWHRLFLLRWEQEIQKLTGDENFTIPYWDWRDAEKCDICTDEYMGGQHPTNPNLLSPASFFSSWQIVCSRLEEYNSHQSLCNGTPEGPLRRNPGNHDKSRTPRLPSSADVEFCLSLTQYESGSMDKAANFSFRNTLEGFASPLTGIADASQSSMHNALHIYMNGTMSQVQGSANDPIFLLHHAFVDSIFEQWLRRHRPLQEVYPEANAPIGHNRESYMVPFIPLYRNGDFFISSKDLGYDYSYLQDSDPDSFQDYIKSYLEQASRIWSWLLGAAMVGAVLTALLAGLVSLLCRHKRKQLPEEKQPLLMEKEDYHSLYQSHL
Description: Inhibition of tyrosinase (unknown origin) using L-tyrosine as substrate at 10 uM preincubated for 15 mins followed by substrate addition relative to control

[8] = target: T2, Tyrosine-protein phosphatase non-receptor type 1 (Homo sapiens) (UniProt P18031); settings: at 10 µM;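 also: recombinant enzyme assay with pNPP substrate, inhibition read after 30 min versus untreated control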
T2 sequence (whole entry): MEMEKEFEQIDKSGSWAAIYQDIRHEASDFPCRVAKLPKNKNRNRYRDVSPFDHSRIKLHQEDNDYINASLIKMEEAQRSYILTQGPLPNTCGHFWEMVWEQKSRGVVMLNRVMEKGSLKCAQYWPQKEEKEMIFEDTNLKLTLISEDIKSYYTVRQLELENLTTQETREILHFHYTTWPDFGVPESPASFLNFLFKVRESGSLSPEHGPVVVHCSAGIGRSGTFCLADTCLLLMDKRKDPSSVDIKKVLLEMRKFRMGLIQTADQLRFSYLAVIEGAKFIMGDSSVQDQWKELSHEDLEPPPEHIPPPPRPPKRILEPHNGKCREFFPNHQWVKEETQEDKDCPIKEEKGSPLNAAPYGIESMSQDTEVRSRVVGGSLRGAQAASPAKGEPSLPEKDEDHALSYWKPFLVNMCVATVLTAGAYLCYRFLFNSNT
Description: Inhibition of recombinant human PTP1B using pNPP as substrate at 10 uM after 30 mins relative to control

Compound	inhibition at 10 µM [1] [%]	inhibition [2] [%]	inhibition at 10 µM [3] [%]	inhibition at 10 µM [4] [%]	inhibition at 10 µM [5] [%]	inhibition at 10 µM [6] [%]	inhibition [7] [%]	inhibition [8] [%]
CC1(C)C=Cc2c(ccc3c2OCC(c2ccc(O)cc2O)=C3)O1	21.4	13.7	0	2.1	1.9	0	50.9	6.1
CC1(C)C=Cc2c(ccc3c(=O)c(-c4ccc(O)cc4O)coc23)O1	12.1	1.5	30	4.9	42.1	0	1	6
CC(C)=CCc1c(O)cc(O)c2c(=O)c(-c3ccc(O)cc3O)coc12	10.3	0	0	4.2	7.4	4.2	49.6	18.2
CC1(C)C=Cc2c(ccc3c2OC[C@H]2c4ccc(O)cc4O[C@@H]32)O1 [SHINPTEROCARPIN]	4.1	0	65	2.2	14.4	0	11.2	13.3
CC1(C)C=Cc2c(ccc(-c3oc4cc(O)ccc4c3C=O)c2O)O1	36.5	36.6	21	7.9	35.8	5.3	10.5	9.3
CC1(C)C=Cc2c(ccc3c2O[C@H]2c4ccc(O)cc4OC[C@@H]32)O1 [PHASEOLIN]	2.6	2.1	0	34.7	6.8	0	2.4	9.5
O=C(/C=C/c1ccc(O)cc1)c1ccc(O)cc1O [ISOLIQUIRITIGENIN]	21	17.1	6.5	8.3	65.6	29.1	15.3	14.2
CC1(C)C=Cc2c(O)ccc(-c3cc4ccc(O)cc4o3)c2O1	48.9	32.2	0	6.5	9.7	6.4	12.5	1.3
CCc1c2c(nc3ccc(OC(=O)N4CCC(N5CCCCC5)CC4)cc13)-c1cc3c(c(=O)n1C2)COC(=O)[C@]3(O)CC [IRINOTECAN]	–	–	98.9	91.8	93.6	95	–	–
CC(C)=CCc1c(O)ccc(C(=O)/C=C/c2cc(O)c3c(c2)C=CC(C)(C)O3)c1O	2	23.1	21.7	10.9	72	34.7	0	47.1
CC(C)=CCc1cc([C@H]2Oc3cc(O)ccc3C[C@H]2O)ccc1O	1.8	9.8	7.3	13.3	18.6	32.7	14.3	10.4
CC1(C)C=Cc2c(ccc(-c3coc4cc(O)ccc4c3=O)c2O)O1 [GLABRONE]	42	6.4	29.2	0	36.1	45.4	9.7	0.3
COc1ccc([C@@H]2COc3c(ccc4c3C=CC(C)(C)O4)C2)c(O)c1	8.5	4.1	54.2	35.9	5.3	16.1	2.2	14.6
COc1cc(/C=C/C(=O)CC(=O)/C=C/c2ccc(O)c(OC)c2)ccc1O [CURCUMIN]	70	–	–	–	–	–	–	–
CC(C)=CCc1cc(C[C@@H](O)C(=O)c2ccc(O)c(CC=C(C)C)c2O)ccc1O	4.1	33.4	75.2	7.5	82.1	72	0	37.7
COc1ccc(-c2coc3cc(O)ccc3c2=O)cc1 [FORMONONETIN]	0	0	8.2	15.4	51.8	0	4.3	9.9
CC(C)=CCc1c(O)ccc(C(=O)/C=C/c2ccc(O)cc2)c1O [ISOBAVACHALCONE]	7.5	13.2	27.3	3.5	15.6	46.7	18.4	16
CC(C)=CCc1cc([C@H]2Oc3c(ccc4c3C=CC(C)(C)O4)C(=O)[C@@H]2O)ccc1O	0.3	40.3	42.9	21.2	13.5	9.2	8.1	10.6
CC(C)=CCc1c(O)cc(O)c2c(=O)c(-c3ccc(O)cc3)coc12	1.5	7.1	32.4	0	19.7	21.2	1.6	10.6
CC(C)=CCc1c(O)ccc2c1OC[C@@H](c1ccc3c(c1O)C=CC(C)(C)O3)C2	3.6	40.2	15.9	10.2	60.9	20.2	12.9	5.5
CC1(C)C=Cc2c(cc(O)c3c2OCC(c2ccc(O)cc2O)C3=O)O1 (configuration not stated)	1.9	0.1	37.6	4.3	12.7	29.6	35.6	58.5
CC(C)=CCc1cc([C@H]2Oc3c(ccc(O)c3CC=C(C)C)C(=O)C2O)ccc1O (some centres not stated)	0	37	39	24.8	33.2	25.2	0.8	43.9
O=C1C[C@@H](c2ccc(O)cc2)Oc2cc(O)cc(O)c21 [NARINGENIN]	0	0	34.5	0.3	16.8	0	2.2	4.1
COc1ccc([C@@H]2COc3c(ccc(O)c3CC=C(C)C)C2)c(O)c1O	33	8.4	38	15.5	30.4	0.2	20.1	80
CC1(C)C=Cc2c(ccc3c2OCc2c-3oc3cc(O)ccc23)O1	7.4	1.4	0	0	33.7	1.1	26.3	18.1
CC(C)C[C@@H](C=O)NC(=O)[C@H](CC(C)C)NC(=O)[C@H](CC(C)C)NC(=O)OCc1ccccc1 (Cbz-Leu-Leu-Leu-aldehyde)	–	79.2	–	–	–	–	–	–
COc1c(CC=C(C)C)c(O)cc2c1C[C@H](c1ccc(O)cc1O)CO2	–	–	–	–	–	–	91.1	–
C[C@H]1[C@H](C)CC[C@]2(C(=O)O)CC[C@]3(C)C(=CC[C@@H]4[C@@]5(C)CC[C@H](O)C(C)(C)[C@@H]5CC[C@]43C)[C@H]12	–	–	–	–	–	–	–	82.1
